Results on three compounds are retold here after patent publication US5935805A, “Measurement of bilirubin albumin binding” (Research Corporation Technologies, Inc., priority 1997, dated 1999).

One data set concerns horseradish peroxidase. Put plainly: Standardization of catalyzing reagent: peroxidase catalyzed oxidation of bilirubin by peroxide in the absence of albumin. It is filed as biochemical. The conditions noted are these: about 21° C. Here is the method:
This is done by determining the Kp, i.e., the first order rate constant for the oxidation of bilirubin by the oxidizing reagent (usually peroxide) in the presence of the catalyzing reagent. The Kp is determined by standard techniques known in the art, utilizing known concentrations of unbound unconjugated bilirubin. […] If B is the unconjugated unoxidized bilirubin concentration at time t, P is the concentration of the catalyzing reagent e.g., peroxidase, Bo, and Bt are the initial unconjugated bilirubin concentration and the unconjugated bilirubin concentration at time t, respectively, and the concentration of the oxidizing reagent e.g., peroxide is not rate limiting, then at concentrations of bilirubin that are well below the Km for peroxidase catalyzed peroxide oxidation of bilirubin, (for HRP, this value is .congruent.70 uMol at 37° C.), then
dB/dt=-Kp ·P·B EQ.3
Integrating Equation 3 between the limits t=o and t=t, wherein t is the predetermined time referred to hereinabove provides [formula] Thus, in accordance with EQ.4, the value of Kp is determined if a known concentration of peroxidase is reacted with an excess amount of peroxide with a known amount of unbound unconjugated bilirubin.

Data set [1] concerns the target T1, albumin (Homo sapiens, UniProt P02768). The conditions noted are these: lowest established value; cited from earlier work.
Data set [2] has as its target T1, albumin. Nature of the data set: Oxidation of bilirubin-14C/defatted albumin by peroxidase and peroxide, Sephadex G25 column radioactivity. The conditions noted are these: for Bilirubin: 50 μg/mL peroxidase, 1000 μmol/L ethyl hydrogen peroxide; for Eluate counts/min: albumin fraction from Sephadex G25; for Bilirubin (% time 0): 278 µM. Format: biochemical. Here is the method: A bilirubin-^14 C/defatted albumin solution (molar ratio 0.42) containing 278 μmol/L bilirubin and 60,839 counts per minute, 50 μg/mL peroxidase, and 1000 μmol/L ethyl hydrogen peroxide were allowed to react for 8 minutes. At various times (0 to 8 minutes), 100 μl of reaction mix was removed and added to 10 μl of 100 mmol/L Na2 S to stop the reaction. The bilirubin concentration was calculated from the absorption at 460 nm after dilution to 1.0 ml with 0.055M Somensen's buffer, and the entire diluted reaction mixture was then placed on a Sephadex G25 0.5×5 cm (diameter×length) column prepared according to the manufacturer's instructions. The albumin fraction was then eluted with buffer. The bilirubin remaining and the radioactivity of the eluate were measured at each time interval to determine whether the oxidation products remained bound to albumin during the reaction and therefore passed through the Sephadex column with the albumin.

The target of data set [3] is T1, albumin. Nature of the data set: Bilirubin-albumin binding isotherm in minimally diluted newborn plasma titrated with bilirubin. On the set-up: Plasma from a partial exchange transfusion performed in a term newborn with polycythemia; from tissue; host or cells: plasma of a term newborn (partial exchange transfusion). The conditions noted are these: dilution 1:1.8, two-site model, non-linear regression. An excerpt:
Plasma from a partial exchange transfusion performed in a term newborn with polycythemia was titrated with bilirubin and the unconjugated unbound bilirubin determined by the present method to assess the bilirubin-albuminbinding isotherm in minimally diluted plasma. Non-linear regression used to determine the equilibrium binding constants, and a two-site model with interaction between sites best fit the binding isotherm.

The next data set deals with newborns. As to conditions: displaces bilirubin from albumin, blood level 15 mg/dL reported; cited from earlier work.
For data set [4], the target named is T1, albumin. Nature of the data set: Unbound bilirubin in bilirubin-defatted albumin solution with sulfisoxazole, Jacobsen and Wennberg method at 1:41.8 dilution. It is filed as binding. As to conditions: 15 mg/dL sulfisoxazole; bilirubin 20 mg/dL, defatted albumin 3.0 g/dL; dilution 1:41.8; mean and SD of 3 replicates. Here is the method: (§1) A 0.1 cm path cuvette was employed to allow direct spectral analysis of the unbound bilirubin at the 1:1.8 dilution.
The Jacobsen and Wennberg method was performed as above using a 1 cm path cuvette. The […] technique was performed by stopping the reaction after five minutes with 1.0 ml of diazo-A and then adding 1.0 ml of 90% methanol.

Data set [5] deals with T1, albumin. Put plainly: Unbound bilirubin in bilirubin-defatted albumin solution with sulfisoxazole, peroxidase method of the instant invention at 1:1.8 dilution. It is filed as binding. As to conditions: 15 mg/dL sulfisoxazole; bilirubin 20 mg/dL, defatted albumin 3.0 g/dL; dilution 1:1.8; mean and SD of 3 replicates.
Excerpt: as §1

Several values for one entry are separate records, joined by “and”; a condition that tells them apart may be missing. Equal entries are not always repeated. Where two headings read alike, the source gives them in different places.

T1 sequence (P02768 25-609): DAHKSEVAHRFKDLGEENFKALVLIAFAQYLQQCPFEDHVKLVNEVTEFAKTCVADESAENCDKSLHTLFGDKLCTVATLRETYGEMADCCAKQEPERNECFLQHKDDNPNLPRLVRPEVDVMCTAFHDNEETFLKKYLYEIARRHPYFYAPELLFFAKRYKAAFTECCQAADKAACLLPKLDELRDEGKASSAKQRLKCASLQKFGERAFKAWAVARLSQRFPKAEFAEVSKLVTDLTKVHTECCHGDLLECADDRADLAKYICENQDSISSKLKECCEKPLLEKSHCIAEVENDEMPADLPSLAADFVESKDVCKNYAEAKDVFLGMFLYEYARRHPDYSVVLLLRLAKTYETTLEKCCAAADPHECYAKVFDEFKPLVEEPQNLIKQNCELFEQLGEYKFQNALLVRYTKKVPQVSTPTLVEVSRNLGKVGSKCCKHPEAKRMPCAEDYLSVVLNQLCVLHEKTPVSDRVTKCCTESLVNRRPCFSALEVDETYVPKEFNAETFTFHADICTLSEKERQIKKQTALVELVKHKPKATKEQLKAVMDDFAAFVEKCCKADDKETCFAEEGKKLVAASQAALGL

In the case of horseradish peroxidase, the “Kp, first order rate constant for catalyzed oxidation of bilirubin” value with horseradish peroxidase is “about eight”.
For the compound `C=CC1=C(C)/C(=C/c2[nH]c(Cc3[nH]c(/C=C4\NC(=O)C(C)=C4C=C)c(C)c3CCC(=O)O)c(CCC(=O)O)c2C)NC1=O` [bilirubin, bilirubin IXa], the “First order dissociation rate constant k-1 of the bilirubin-albumin complex, lowest value” on albumin [1] is “about 0.4 /min”. Further, the “Eluate counts/min (% time 0)” value on albumin [2] (reaction time 0 min) was 100 % time 0; at albumin [2] (reaction time 4 min) it was 97 % time 0 and 92 % time 0; on albumin [2] (reaction time 6 min) it was 87 % time 0 and 82 % time 0; on albumin [2] (reaction time 8 min), 87 % time 0 and 86 % time 0. Also, the Bilirubin is 4.86 µmol/L and 4.93 µmol/L at albumin [2] (reaction time 0 min); 3.07 µmol/L and 3.36 µmol/L at albumin [2] (reaction time 4 min); 2.70 µmol/L and 2.60 µmol/L on albumin [2] (reaction time 6 min); 2.14 µmol/L and 2.24 µmol/L at albumin [2] (reaction time 8 min). Also, the Eluate counts/min on albumin [2] (reaction time 0 min) was 57,675 counts/min and 57,692 counts/min; at albumin [2] (reaction time 4 min), 55,797 counts/min and 53,070 counts/min; at albumin [2] (reaction time 6 min), 50,119 counts/min and 47,500 counts/min; at albumin [2] (reaction time 8 min), 50,174 counts/min and 49,405 counts/min. For the same compound, the “Bilirubin (% time 0)” value was 63 % time 0 and 68 % time 0 on albumin [2] (reaction time 4 min, 4 min); 55 % time 0 and 53 % time 0 at albumin [2] (reaction time 6 min, 6 min). In addition, the Kd on albumin [3] (read-out: Equilibrium dissociation constant, 1:1 bilirubin/albumin species) was 59 nM; on albumin [3] (read-out: Equilibrium dissociation constant, 2:1 bilirubin/albumin species), 30.3 nM.
On to `Cc1noc(NS(=O)(=O)c2ccc(N)cc2)c1C` [sulfisoxazole], for which the “Bilirubin toxicity when given to newborns” value in the data set with newborns was “development of bilirubin toxicity”. Besides, the “CONCENTRATION OF UNBOUND BILIRUBIN + Sulfa” value at albumin [4] is recorded as 0.092 ± .003 μm; at albumin [5], 0.285 ± 0.03 μm.
